Measured values: US6313180A, “Steroid compounds having contraceptive and anti-osteoporosis activity” (priority 1997, dated 2001)

Assays:
[1] = target: T1, human estradiol (E) receptor (Homo sapiens, UniProt P03372); type: binding
T1 construct: present in human breast tumor cells (MCF-7 cells); endogenous in cells; host or cells: MCF-7 human breast tumor cells
T1 sequence (P03372 1-595): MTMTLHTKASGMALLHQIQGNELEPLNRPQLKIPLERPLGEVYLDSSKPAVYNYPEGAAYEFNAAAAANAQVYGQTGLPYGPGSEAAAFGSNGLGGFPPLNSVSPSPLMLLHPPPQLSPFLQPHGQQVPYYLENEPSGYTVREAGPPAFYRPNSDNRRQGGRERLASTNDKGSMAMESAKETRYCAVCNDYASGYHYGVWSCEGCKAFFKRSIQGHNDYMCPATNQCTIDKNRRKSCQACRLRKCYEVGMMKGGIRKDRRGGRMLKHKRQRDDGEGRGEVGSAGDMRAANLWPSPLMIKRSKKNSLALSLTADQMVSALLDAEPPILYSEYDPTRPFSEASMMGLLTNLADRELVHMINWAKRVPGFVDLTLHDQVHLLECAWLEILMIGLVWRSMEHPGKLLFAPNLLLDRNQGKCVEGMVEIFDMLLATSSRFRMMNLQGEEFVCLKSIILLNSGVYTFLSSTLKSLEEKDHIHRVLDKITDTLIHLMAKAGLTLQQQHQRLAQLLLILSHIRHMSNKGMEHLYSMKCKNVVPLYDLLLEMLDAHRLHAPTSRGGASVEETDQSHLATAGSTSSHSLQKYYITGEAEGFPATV
Protocol: The relative estradiol receptor binding affinity was measured in the same manner as described above but using 17βestradiol as a reference.
(§1) Several of the compounds according to the Examples I-VI, as well as other compounds according to the invention synthesized in analogous manner, were subjected to the tests described in the Examples VII and VIII. The results are described in the Table, in which the type of A-ring and the substitution at carbon atoms nos. 7, 11, and 17 is indicated. In the columns captioned E and P, the relative binding affinities for the estrogen and progesterone receptors are given; the ED50 results of the AllenDoisy and the McPhail tests have been indicated in μg/kg. In the column captioned "Osteoporosis", the ED50 results of the anti-osteoporosis test are given (dose in μg/kg, day, as described above).

[2] = tested on: human progesterone (P) receptor; assay: Relative progesterone receptor binding affinity, cytoplasmic receptors of MCF-7 cells; conditions: relative to (16α)-16-ethyl-21-hydroxy-19-norpregn-4-ene-3,20-dione, 16 h, 4° C
[3] = McPhail test for progestagenic activity in vivo; conditions: oral administration; progestagenic activity; read-out: McPhail ED50
[4] = Allen Doisy test for estrogenic activity in vivo; conditions: oral administration; estrogenic activity; read-out: AllenDoisy ED50
ovariectomised rats = assay: Prevention of ovariectomy-induced bone loss in rats (anti-osteoporosis test, pQCT trabecular bone mineral density); type: in vivo, rat (female Wistar); conditions: Rattus norvegicus, 672 h; oral administration; ovariectomised rats, once or twice daily for 4 weeks; 40-60% proportional difference in trabecular bone mineral density; read-out: Osteoporosis ED50
Text: Ovariectomy induces in rats bone loss, which is due to oestrogen deficiency. Administration of oestrogenic compounds prevents this effect. The test is used to evaluate a compound for anti-osteoporotic activity in ovariectomised rats. The effect on bone mass can be evaluated by peripheral Quantitave Computed Tomography (pQCT) measurement of trabecular bone mineral density.
Mature virgin female Wistar rats preferentially, 225-250 g. Strain: Hsd/Cpd:Wu, SPF-bred by Harlan, CPB, Zeist, The Netherlands.
On day 1 of the experiment the rats are weighed and distributed over the cages in order of body weight. The rat with the lowest body weight in the first cage and the heaviest rat in the last cage. Treatments are randomized over the rats per block. A block (group of 3+n treatments) consists of 1 Intact placebo rat, 1 OVX placebo rat, 1 OVX reference rat and 1 rat of each n treatments.
Sham-operation and ovariectomy are performed under ether anaesthesia. After recovery from the anaesthesia, within 24 h, vehicle, reference compound or test compound is administered once or twice daily for 4 weeks.
Trabecular bone mineral density (mg/cm^3) of the metaphyseal part of the femur was measured with a pQCT (peripheral Quantitative Computed Tomography machine; XCT 960A, Stratec, Birkenfeld, Germany) directly after autopsy on fresh tissue. Two 360° scans, which have, due to the X-ray beam, a standard thickness of 1 mm were taken. The scans have a resolution of 0.148×0.148 mm. One scan was taken at 5.5 mm from the distal end of the femur, where trabecular bone mineral density of the metaphyseal part was measured. The other scan was taken in the diaphysis at 13.5 mm from the distal end, which contains no trabecular bone. In the latter scan cortical bone mineral density and the geometrical parameters, such as cortical thickness, total bone area, outer and inner diameter, were determined. Intra- and inter-assay variation for the measurement of trabecular bone mineral density in the distal femur were about 2-3%. The XCT-960A was calibrated with a standard of hydroxyapatite embedded in acrylic plastic.
Ovariectomy causes a statistically significant decrease in trabecular bone mineral density (P≤0.05, 2 way ANOVA).
The active dose (ED50) is the dose where a mean proportional difference in trabecular bone mineral density between 40 and 60% is reached as compared to the sham and ovariectomised group.
as §1

SMILES: CCC[C@@H]1Cc2cc(O)ccc2[C@H]2CC[C@@]3(C)[C@@H](C[C@H]4CCCC[C@]43O)[C@H]12 [Code 38515, (7-alpha,16-alpha,17-alpha)-7-propyl-16,24-cyclo-19,21-dinorchola-1,3,5(10)-trien-3,17-diol]
- Relative binding affinity to the human estradiol (E) receptor [1]: 16%
- Relative binding affinity to the human progesterone (P) receptor [2]: 10%
- ED50 [3]: 4 mg/kg
- ED50 [4]: 0.096 mg/kg
- ED50 (ovariectomised rats): 0.19 mg/kg
